Assay results from patent publication US9464045B2, “Process for the preparation of methionine” (EVONIK DEGUSSA GmbH, priority 2012, dated 2016).

Experiment: Recrystallization of methionine in the presence of additives (procedure of Example 1): amount of foam and bulk density
Assay type: physicochemical
Details: bulk density of dried methionine; additive concentration 400 ppm
Protocol: 60 g of methionine, 305 g of water and 35 g of crude methionine filtrate were introduced into a flask and circulated via a heat exchanger by pumping at a temperature of 40° C. As a result of the potassium carbonate present in the crude methionine filtrate, the potassium ion concentration was ca. 7 g/kg. A solution, heated to 90° C., of 150 g of methionine in 990.5 ml of water and 109.5 g of crude methionine filtrate was added to this suspension at a rate of 18 ml/min, during which the temperature of the initial charge of suspension was kept at 40° C. After adding 650 ml of the hot solution, 500 ml of suspension were removed and then a further 500 ml of the hot solution were metered in at a rate of 18 ml/min. The resulting suspension was discharged, the amount of foam was determined, and the methionine was filtered off and washed with 300 ml of acetone. After drying the methionine, the bulk density was determined.
The recrystallization experiments were carried out in the presence of the following additives, the stated concentration being established by adding the additive to both starting solutions/suspensions. The concentration data give the total active ingredient content of the additive without water based on the total mass of the solution or suspension. Additive 1 was an aqueous mixture of antifoam and crystallization additive according to EP […] […]

polyethoxylated (20 EO) sorbitan tristearate [Additive 24]
Bulk density: 616 g/L
